Columns and labels:
neonatal mouse calvaria = test: Bone resorption assay, calcium release from neonatal mouse calvaria in tissue culture; assay type: cell-based, Swiss albino mice; details: for bone resorption induced by six different agents: inducers: calcitriol, all-trans RA, 9-cis RA, PGE2, TNFα, IL-1α (tables 6 to 11)
Procedure: A series of agents are known to induce or stimulate bone resorption. In this assay retinoid antagonists were tested for their capacity to inhibit or counteract the bone resorptive activity of bone resorption inducers.
Bone resorption was determined by quantification of calcium release from neonatal mouse calvaria (skull bones) in a tissue culture system, into supernatant medium. Calvaria were prepared from 4 days old mice (body weight 4-4.5 g) of time controlled mated Swiss albino mice. Frontal and parietal calvarial parts were dissected under a stereo-microscope and halved along the median suture. Half calvaria from all animals were randomly distributed to 6-well culture dishes (NUNC), containing stainless steel grids to support the bones at the interface of gas and medium. The tissue is incubated in BGJ medium (Bioconcept, Switzerland) according to a specified formulation supplemented with 1 mg/ml BSA (bovine serum albumin, SIGMA). Calvaria were cultured at 37°C in humidified atmosphere of 5% CO2 and 95% air. After 24 hours of preincubation, they were transferred to new dishes containing 1.7 ml fresh medium and test substances. Bone resorption inducers and retinoid antagonists were tested either as single agents or in combination. The cultures were then run for 72 hours. Calcium concentrations in culture supernatants were measured immediately after each incubation period. Stable, free calcium was determined in 25 µl samples with a spectrophotometric method using a methylthymol blue containing kit (Biomérieux), (E.M. Gindler and J.D. King, Am. J. Clin. Pathol. 1972, 58, 376-382). The resorptive response was expressed as µg calcium released per half calvarium during 3 days treatment.
Additional tests were done to examine calcium remaining in the calvaria. Calcium was extracted with 5% trichloroacetic acid (TCA) and determined in 50 µl samples after neutralization with NaOH. Furthermore, bone tissue viability was determined to exclude cytotoxicity. This was quantified by the colorimetric MTT tetrazolium test (T. Mosmann, J. Immunol. Methods 1983, 65, 55-63).
Bone resorption induced by the various agents was determined by measuring the amount of calcium released from half calvaria into the supernatant medium. Calcium release is indicated in µg per half calvarium in 1.7 ml medium. Calcium release from calvaria into medium as well as uptake of calcium from medium into calvaria can be measured. Efficacy of retinoid antagonists to inhibit the activity of bone resorption inducers is expressed as % inhibition. It is calculated from the difference between the amount of released calcium by bone resorption inducers alone and the amount of released calcium by their combination with retinoid antagonists. Retinoid antagonists alone induce neither calcium release nor uptake. Basal resorption rate in vehicle controls was 5 or less than 5%.

IL-10 = IL-10 production by activated monocytes (SAC + IFN-γ); assay type: cell-based, human; details: SAC+IFN-γ alone 1040 pg/ml
human naive T cells = test: Inhibition of differentiation of human naive T cells into T helper 2 (Th2) cells; assay type: cell-based; design: dose or concentration left out as unconfirmed; details: for IL-4 expressing cells, % gated cells: Th2 control 26.32; for IL-4 expressing cells, % Th2 cells: Th2 control = 100
Procedure: In vitro assay for inhibition of differentiation of human naive T cells into T helper 2 (Th2) cells by retinoid antagonists.
Naive T cells from cord blood were isolated and treated as described [Panina-Bordignon et al. J. Clin. Invest. 100. 1513-1519 (1997)]. Briefly, cord blood derived mononuclear cells were incubated with anti-CD45RA and anti-CD4 monoclonal antibodies. After a 20 minute incubation, cells were washed and incubated with goat antimouse Ig-coated magnetic beads. Positive cells were separated and seeded at 1 x 10^6 cells/ml in a 24 well plate, together with autologous adherent cells, PHA, and IL-4 in the presence or absence of Compound H or Compound B […] for 5 days. Cells were then washed and put back in culture in the presence of IL-2 (100 U/ml). After 10 days, the cells were collected and restimulated with PMA (50 ng/ml) and ionomycin (1 µg/ml) for 4 hours. Brefeldin A (10 µg/ml) was added for the last 2 hours. Then the cells were fixed with 4% paraformaldehyde and permeabilized with saponin. Fixed cells were stained with FITC-anti IFNγ and PE-anti-IL-4mAbs and subjected to cytofluorimetric analysis.

IL-12 = IL-12 production by THP-1 cells stimulated with IFNγ and SAC; assay type: cell-based, human; details: retinoid antagonist (1 µg) added at time 0 together with IFNγ, IFNγ+SAC alone 275
Procedure: THP-1 cells were obtained from American Tissue Culture Collection and cultured in complete medium. To assay for IL-12 production, THP-1 cells, 1.25 x 10^6 cells/ml, were stimulated with S. aureus Cowan strain (SAC) (1/1000) and human recombinant interferon-γ (huIFN-γ (1000 U/ml) [Ma et al., J. Exp. Med. 183, 147-157 (1996)]. Alternatively, 0.5 x 10^6 human peripheral blood mononuclear cells (PBMC) (1 ml culture in 48 well plates) were primed with huIFN-γ (1000 U/ml) for 16 hours at 37°C, and then stimulated with SAC (1/1000). Supernatants were collected after 48 hours and freezed at -20 °C until assayed [Panina-Bordignon et al., J. Clin. Invest. 100, 1513-1519 (1997)].
IL-12 production was measured by specific enzyme linked immuno sorbant assay (ELISA), using 20C2 antibody (rat anti human IL-12 heterodimer p40-p35), at 2.5 µg/ml in coating buffer, and peroxidase-conjugated 4D6 antibody (rat anti human IL-12) at 250 ng/ml in assay buffer as described [Zhang et al., J. Clin. Invest. 93, 1733-1739 (1994)]. Standard (recombinant human IL-12, 800 pg/ml to 6 pg/ml) and samples (100 µl) diluted in assay buffer were added to duplicate wells. Absorbance was read at 450-650 nm. The unknown IL-12 concentrations of the samples were read from the corresponding standard curve and multiplied by the corresponding dilution factor. Maximal IL-12 production varied between 200 and 400 pg/ml.
Lyophilized retinoid antagonists were diluted in DMSO under yellow light, on ice at a concentration of 2 mM. Serial dilutions (1 µM-1 pM) were prepared in complete RPMI medium. 10 µl of each dilution was added to 1 ml culture.

[1] = 9-cis RA 0.1 μM + retinoid antagonist 1 μM
[2] = 9-cis RA 0.1 μM + retinoid antagonist 10 μM
[3] = 9-cis RA 1 μM + retinoid antagonist 10 μM
[4] = Calcitriol 0.3 nM + retinoid antagonist 1 µM
[5] = Calcitriol 1 nM + retinoid antagonist 1 µM
[6] = Calcitriol 3 nM + retinoid antagonist 1 µM
[7] = all-trans RA 0.1 μM + retinoid antagonist 1 μM
[8] = all-trans RA 0.1 μM + retinoid antagonist 10 μM
[9] = all-trans RA 1 μM + retinoid antagonist 10 μM

Row | Structure (SMILES) | Calcium release per half calvarium (neonatal mouse calvaria; [1]) [µg] | Inhibition of bone resorption by retinoid antagonists (neonatal mouse calvaria; [1]) [%] | Calcium release per half calvarium (neonatal mouse calvaria; [2]) [µg] | Inhibition of bone resorption by retinoid antagonists (neonatal mouse calvaria; [2]) [%] | Calcium release per half calvarium (neonatal mouse calvaria; [3]) [µg] | Inhibition of bone resorption by retinoid antagonists (neonatal mouse calvaria; [3]) [%] | Calcium release per half calvarium (neonatal mouse calvaria; [4]) [µg] | Inhibition of bone resorption by retinoid antagonists (neonatal mouse calvaria; [4]) [%] | Calcium release per half calvarium (neonatal mouse calvaria; [5]) [µg] | Inhibition of bone resorption by retinoid antagonists (neonatal mouse calvaria; [5]) [%] | Calcium release per half calvarium (neonatal mouse calvaria; [6]) [µg] | Inhibition of bone resorption by retinoid antagonists (neonatal mouse calvaria; [6]) [%] | Calcium release per half calvarium (neonatal mouse calvaria; [7]) [µg] | Inhibition of bone resorption by retinoid antagonist (neonatal mouse calvaria; [7]) [%] | Calcium release per half calvarium (neonatal mouse calvaria; [8]) [µg] | Inhibition of bone resorption by retinoid antagonist (neonatal mouse calvaria; [8]) [%] | Calcium release per half calvarium (neonatal mouse calvaria; [9]) [µg] | Inhibition of bone resorption by retinoid antagonist (neonatal mouse calvaria; [9]) [%] | bone resorption induced by six different agents (neonatal mouse calvaria) | IL-10 (IL-10; antagonist 10 nM) [pg/mL] | also measured
1 | CCCCCCCOc1cc2c(cc1/C(C)=C/c1ccc(C(=O)O)cc1)C(C)(C)CCS2(=O)=O [Compound H, p-[(E)-2-[3',4'-Dihydro-4',4'-dimethyl-7'-(beptyloxy)-2'H-1-benzothiopyran-6'-yl]propenyl]benzoic acid 1',1'-dioxide] | 4 ± 5 | 82 | -5 ± 3 | 123 | 28 ± 7 | 30 | 0 ± 3 | 100 | 4 ± 3 | 55.6 | 11 ± 6 | 15.4 | 2 ± 11 | 89.5 | -5 ± 4 | 126.3 | -2 ± 3 | 108.7 | counteract bone resorption | 1060 | IL-10 (IL-10; antagonist 100 nM): 1050 pg/mL; IL-10 (IL-10; antagonist 1000 nM): 1343 pg/mL; IL-4 expressing cells, % gated cells (human naive T cells): 10.8%; IL-4 expressing cells, % Th2 cells (human naive T cells): 41%; THP-1 IL-12 (IL-12): 306 pg/mL
2 | CCCCOc1c(\C(C)=C/C=C/C(C)=C/C(=O)O)cc(C(C)(C)C)cc1C(C)(C)C [Compound B, (2E,4E,6Z)-7-(3,5-di-tert.butyl-2-butyloxyphenyl]-3-methyl-2,4,6-octatrienoic acid] | 2 ± 5 | 33.3 | -4 ± 3 | 123.5 | -6 ± 2 | 133.3 | -1 ± 2 | 125 | 5 ± 3 | 44.4 | 4 ± 4 | 69.2 | 5 ± 4 | 61.5 | -3 ± 4 | 123.1 | 10 ± 7 | 41.2 | counteract bone resorption | 1020 | IL-10 (IL-10; antagonist 100 nM): 1521 pg/mL; IL-10 (IL-10; antagonist 1000 nM): 1700 pg/mL; IL-4 expressing cells, % gated cells (human naive T cells): 8.5%; IL-4 expressing cells, % Th2 cells (human naive T cells): 32%; THP-1 IL-12 (IL-12): 577 pg/mL

From patent publication EP1161410B1, “RETINOID ANTAGONISTS AND USE THEREOF” (Basilea Pharmaceutica AG, priority 1999, dated 2000)
